According to US20230320345A1, “METHODS AND COMPOSITIONS FOR INHIBITING ICE RECRYSTALLIZATION” (UNIVERSITY OF TENNESSEE RESEARCH FOUNDATION, priority 2022, published 2023):
Where “and” joins values, the source holds several entries; their conditions need not be identical. Equal entries are not always repeated. Entries after “also recorded” stand apart in the source; their conditions may differ.

What was measured:
[1] = Ice recrystallization inhibition (IRI) "splat" assay; settings: for %MLGS compared with PEG: at 40 mg/mL; for IRI activity: splat assay, 30 min incubation at -8° C., 12.5-100 mM
Protocol: Ice recrystallization inhibition (IRI) activity of bile salts. NaC, NaDC, NaCC, and NaLC were tested for IRI activity at concentrations of 12.5, 25.0, 50.0, and 100 mM in 1x PBS using the “splat” assay test known and described in Knight, C. A.; Hallett, J.; Devries, A. L., “Solute effects on ice recrystallization: An assessment technique,” Cryobiology 1988, 25 (1), 55-60, which is incorporated herein by reference. 100 mM NaLC was not tested due to its gelation. A droplet of the sample was gently squeezed out of a syringe with a 21-gauge needle from Exelint, Redondo Beach, CA, and was dripped from 1.4 m above onto a microscope slide sitting on a metal block surrounded by dry ice. Upon hitting the slide surface, the droplet instantaneously froze into an ice wafer. The ice wafer was immediately transferred into the chamber of a cryostage system from Instec, Boulder, CO, for incubation. Pictures were taken after 30 min incubation at -8° C. by a BX51 polarized microscope from Olympus, Tokyo, Japan, equipped with a DP70 camera from Olympus. PEG was tested as a negative control at concentrations of 5, 10, 20, and 40 mg/mL in 1x PBS to match the mass concentrations (w/v) of bile salts. PVA was tested as a positive control at low concentrations, including 0.05, 0.10, 0.20, and 0.40 mg/mL in 1x PBS, because of its high IRI activity. The largest lengths of the five largest ice crystals in one picture were measured by Image J software from National Institutes of Health, Bethesda, MD. Each sample was performed in triplicate. Each replication had five pictures randomly selected, representing a total of 75 ice crystals for each sample. The percent mean largest grain size (%MLGS) was calculated by averaging three replications divided by the blank. Data are reported as the mean ± standard derivation of three replications. The %MLGS calculations are plotted in FIG. 3 against the concentrations of the bile acids and the controls.

[2] = Optical photos of bile salt solutions as a function of temperature, with crossed polarized filters; type: physicochemical; settings: 25 mM in PBS; for liquid crystal phase: all temperatures, crossed polarized filter; for appearance of solution: temperatures from 90° C. to -15° C.
Protocol: (§1) Viscosity profiles, critical micelle concentration (CMC), and optical photos of bile salts. The critical micelle concentration of a colloid or surfactant is the concentration of surfactant above which micelles form, and any additional surfactant added to the system will form micelles. The viscosity profile of NaC, NaDC, NaCC, and NaLC at a concentration of 25 mM in 1x PBS were determined by an AR2000 rheometer from TA Instruments in New Castle, PA, with a 40 mm aluminum parallel plate at 25° C. The samples were measured from 0.1 to100 s^-1 shear rate after pre-shearing at 50 s^-1 for 30 seconds with or without an equilibrium time of 30 min. The CMCs were determined by a UV-vis spectroscopy method with slight modifications described in Reis, S.; Moutinho, C. G.; Matos, C.; de Castro, B.; Gameiro, P.; Lima, J. L., “Noninvasive methods to determine the critical micelle concentration of some bile acid salts,” Anal Biochem 2004, 334 (1), 117-26, which is incorporated herein by reference. NaC, NaDC, and NaCC were dissolved in water at concentrations from 1 to 25 mM. The absorbance spectra from 200 to 300 nm were collected by an Evolution 201 spectrometer from Thermo Scientific, Waltham, MA to find the peak absorbance. The CMC was determined from the sudden change of peak absorbance as concentration increases. The optical photos of bile salt in 1X PBS solutions were taken after incubation at each designed temperature for 20 minutes.

[3] = Atomic force microscopy (AFM) analysis of bile salt solutions; type: physicochemical; settings: 25 mM sample, dried on mica
Protocol: Atomic force microscopy (AFM) analysis of bile salt solutions. The AFM procedure was followed as set forth in Schefer, L.; Adamcik, J.; Diener, M.; Mezzenga, R., “Supramolecular chiral self-assembly and supercoiling behavior of carrageenans at varying salt conditions,” Nanoscale 2015, 7 (39), 16182-16188, which is incorporated herein by reference. Briefly, 0.01% (v/v) APTES in water was incubated on a freshly peeled mica surface for 1 min. APTES solution was then washed away using water on a P6700 spin coater from Specialty Coating Systems Inc., Indianapolis, IN, at 2,000 rpm. About 200 µL of 25 mM sample was loaded on the mica surface and incubated for 30 seconds. Then the mica was rinsed with 1.0 mL water drop-wise and dried in a vacuum chamber at room temperature. All mica surfaces were observed by a Multimode VIII AFM from Bruker, Santa Barbara, USA, in ScanAsyst-Air mode. All images were flattened using Nanoscope Analysis software from Bruker, Santa Barbara, USA, before analyzing by an ImageJ instrument from National Institutes of Health, Bethesda, MD.

[4] = Viscosity profile by rheometer / gel formation; type: physicochemical; settings: for viscosity: 25 mM in 1x PBS, 25° C.
Protocol: as §1

[5] = Ice growth kinetics of NaLC; settings: 1x PBS, -8° C., up to 60 min
Protocol: Ice growth kinetics of NaLC. The ice growth kinetics in the presence of NaLC at 12.5, 25, and 50 mM was determined at -8° C. in 1x PBS. Five pictures were taken every 5 min for a total time of 60 min. %MLGS at each time was calculated against its blank control at the same time.

[6] = Ice recrystallization inhibition (IRI) "splat" assay; settings: concentrations close to or below literature CMC value, PBS (FIG. 6D)

Row | Molecule | %MLGS compared with PEG ([1]; 1x PBS, 30 min at -8° C.) | IRI activity ([1]; 1x PBS) | temperature at which ices were formed [2] [°C] | liquid crystal phase [2] | appearance of solution [2] | helical structure by AFM [3] | helix length [3] [µm] | helix turn [3] [µm] | helix width [3] [µm] | gel formation ([4]; 100 mM, after sample preparation) | viscosity ([4]; fresh-prepared) | ice growth ([5]; 12.5 mM) | ice growth ([5]; 25.0 mM) | ice growth ([5]; 50.0 mM) | IRI activity (%MLGS) [6] | ice crystal size compared to blank 1x PBS and negative control PEG ([1]; 10 mg/mL (25 mM), 30 min at -8° C.) | ice crystal sizes compared with positive control PVA ([1]; 10 mg/mL NaLC, 1x PBS, 30 min at -8° C.) | concentration at which IRI active ([1]; 1x PBS, 30 min at -8° C.) | viscosity ([4]; after 30-min equilibrium)
1 | C[C@H](CCC(=O)[O-])[C@H]1CC[C@H]2[C@@H]3[C@H](O)C[C@@H]4C[C@H](O)CC[C@]4(C)[C@H]3CC[C@]12C.[Na+] [NaCC, sodium chenodeoxycholate] | smaller %MLGS values than PEG | weak ice recrystallization inhibitor | -15 | no liquid crystal phase was observed | clear | – | – | – | – | – | – | – | – | – | – | – | – | – | –
2 | C[C@H](CCC(=O)[O-])[C@H]1CC[C@H]2[C@@H]3CC[C@@H]4C[C@H](O)CC[C@]4(C)[C@H]3CC[C@]12C.[Na+] [NaLC, sodium lithocholate] | – | relatively potent IRI; also recorded: most potent ice recrystallization inhibitor | – | – | turbid | helical structure | 1.72 ± 0.37 | 0.19 ± 0.04 | 0.14 ± 0.01 | gel was formed | highest viscosity among four bile salts | IRI active but did not stop the ice growth completely | completely stopped the growth of ice crystals; also recorded: block the growth of ice crystals | completely stopped the growth of ice crystals | No IRI activity was observed | significantly smaller ice crystals | comparable to those in the positive control of 1 mg/mL PVA | around 10 mg/mL and ~25 mM | –
3 | sodium deoxycholate [NaDC] | smaller %MLGS values than PEG | weak ice recrystallization inhibitors | – | – | clear | – | – | – | – | – | – | – | – | – | – | – | – | – | increased significantly to a level similar to that of NaLC
4 | C[C@H](CCC(=O)[O-])[C@H]1CC[C@H]2[C@@H]3[C@H](O)C[C@@H]4C[C@H](O)CC[C@]4(C)[C@H]3C[C@H](O)[C@]12C.[Na+] [NaC, sodium cholate] | – | not IRI active | -15 | no liquid crystal phase was observed | clear | – | – | – | – | – | – | – | – | – | – | – | – | – | –
